# Reference: patent US20200155731A1, “DEVICE AND METHOD FOR PROMOTING RAPID STRUT COVERAGE AND VASCULAR ENDOTHELIAL COVERAGE” (priority 2017, published 2020)
# Columns and labels:
# [1] = system: human VSMC; assay: VSMC proliferation in bottles containing human VSMC, gene silencers vehicle lentivirus and plasmid; format: cell-based; conditions: Experiment 2; lentivirus vehicle for siRNA; FIG. 1
# Procedure: (§1) Therefore, Experiment 2 was carried out with the following groups: lentivirus+gene silencer TNFRSF11B-siRNA, lentivirus+gene silencer NCF4-siRNA, full control (no vehicle and no drug), lentivirus+gene silencer SM22a-siRNA+glyceraldehyde 3-phosphate dehydrogenase (GAPDH) (vehicle control 1), lentivirus+gene silencer MYH11-siRNA+GAPDH (vehicle control 2), sirolimus (drug control 1), and paclitaxel (drug control 2).
# (§2) TNFRSF11B-siRNA and NCF4-siRNA are gene silencers of the TNFRSF11B and NCF4 genes, respectively. The delivery system of gene silencers was developed by inserting the respective gene silencers in a plasmid which is carried by a lentivirus. Lentivirus particles are intracellular transduction-ready viruses containing plasmids with gene silencers. After transduction, cells express permanently gene silencers. The density of cell cultures 24 hours before transfection was 2×10^5 cells/10 cm2 in culture medium. […]
# (§3) Two control groups containing a lentivirus and a gene silencer of smooth muscle protein 22α (SM22α) or smooth muscle myosin heavy chain (MYH11) were used to assess the vehicle. […] Thus, said two gene silencers, SM22α-siRNA and MYH11-siRNA, were marked with glyceraldehyde 3-phosphate dehydrogenase (GAPDH), called bioconjugates, to ensure by means of fluorescence microscopy that the gene silencers effectively entered VSMC and EC. […]
# [2] = system: human VSMC; assay: VSMC proliferation in bottles containing human VSMC, vehicle nanoparticles (DSPE-PEG); format: cell-based
# Source text: […], 2 distearoyl-sn-glycero-3-phosphoethanolamine-Nmethxy (polyethyleneglycol)-2000 (DSPE-PEG) as a drug and gene silencer carrying vehicle instead of lentiviruses and plasmids which were used in the previous experiments. That being so, 8 groups were included for both assessment of nanoparticles as a vehicle and final confirmation of the previous results: control (nanoparticles only), MYH11-siRNA in nanoparticles, CNN1-siRNA in nanoparticles, sirolimus in nanoparticles, paclitaxel in nanoparticles, TNFRSF11B-siRNA in nanoparticles, NCF4-siRNA in nanoparticles, and MYL9-siRNA+GAPDH in nanoparticles.
# (§4) The groups of sirolimus in nanoparticles and paclitaxel in nanoparticles were included to compare the efficacy in inhibiting VSMC proliferation. The groups of NFRSF11B-siRNA in nanoparticles and NCF4-siRNA in nanoparticles were tested again with a different vehicle for final confirmation of the negative results. The group of MYL9-siRNA+GAPDH in nanoparticles was studied to evaluate the vehicle efficacy, that is, to ensure that gene silencers would enter VSMC and EC using nanoparticles as a vehicle. […] MYL9-siRNA gene silencer was marked with GAPDH for later verification of its transfection into the cells through fluorescence microscopy. Finally, pure nanoparticles were used as a vehicle control, that is, with neither drug nor gene silencer. […]
# [3] = system: human vascular EC; assay: EC proliferation in bottles containing human EC, gene silencers vehicle lentivirus and plasmid; format: cell-based; conditions: Experiment 2; lentivirus vehicle for siRNA; FIG. 2
# Procedure: as §1, §2, §3
# [4] = system: human EC; assay: EC proliferation in bottles containing human EC, vehicle nanoparticles (DSPE-PEG); format: cell-based; conditions: Experiment 5, control nanoparticles only, FIG. 7
# Procedure: Experiment 5 was carried out by using nanoparticles of 1, 2 distearoyl-sn-glycero-3-phosphoethanolamine-Nmethxy (polyethyleneglycol)-2000 (DSPE-PEG) as a drug and gene silencer carrying vehicle instead of lentiviruses and plasmids which were used in the previous experiments. That being so, 8 groups were included for both assessment of nanoparticles as a vehicle and final confirmation of the previous results: control (nanoparticles only), MYH11-siRNA in nanoparticles, CNN1-siRNA in nanoparticles, sirolimus in nanoparticles, paclitaxel in nanoparticles, TNFRSF11B-siRNA in nanoparticles, NCF4-siRNA in nanoparticles, and MYL9-siRNA+GAPDH in nanoparticles.
# as §4, with “microscopy.” for “microscopy. Finally, pure nanoparticles were used as a vehicle control, that is, with neither drug nor gene silencer.”
# [5] = system: swine coronary arteries; assay: In vivo study in swine: stent deployment in the coronary arteries, intravascular ultrasound follow-up; design: species or system Large White swine
# Source text: Experiment 6 was an in vivo study in swine comparing MYH11-siRNA-eluting stent and CNN1-siRNA-eluting stent with bare metal stent and sirolimus-eluting stent.
# Eighteen commercially available bare metal stents 2.75×15 mm were covered with MYH11-siRNA in nanoparticles (9 stents) or CNN1-siRNA in nanoparticles (9 stents) using a spray nozzle machine to create an abluminal cover in order to deliver the gene silencers locally in the inner surface of the vessel.
# The hybrid lipid-polymer nanoparticles loaded with gene silencers (siRNA) were prepared by the nanoprecipitation method. The aqueous phase consisted of the gene silencer solubilized in 10 mL of water Milli Q under stirring and at a bath temperature of 30° C. The organic phase containing a lipid-cationic compound DSPE-PEG-NH2 (1,2-distearoyl-sn-glycero-3-phosphoethanolamine-N-[amino(polyethyleneglycol)-2000] and the PLGA polymer was then injected into the aqueous phase using a 20 G needle, the suspension being kept under moderate stirring for 5 minutes and then concentrated to a final volume of 10 mL in a rotatory evaporator to eliminate the organic solvent and adjust the final concentration. MYH11-siRNA and CNN1-siRNA concentrations ranging from 10 μg/ml to 100 μg/ml were tested.
# After covering the abluminal surface of the 18 stents with MYH11-siRNA in nanoparticles (9 stents) or CNN1-siRNA in nanoparticles (9 stents), the stents were left to dry during 60 minutes, packaged in DuPont Tyvek™ and then sterilized with ethylene oxide (EtO) at 50 C.
# Nine Large White swine were submitted to stent deployment in the coronary arteries, 1 stent being deployed in the left anterior descendent (LAD), 2 stents in the circumflex (CX) and 1 stent in the right coronary artery (RCA). The stents were deployed in a diameter ratio of 1.1 in relation to the coronary artery diameter, that is, with a mild oversize, in order to stimulate a similar inflammatory reaction that causes in-stent restenosis, to evaluate the efficacy of the gene silencers in controlling in-stent neointimal hyperplasia in a in vivo model. This oversized stent deployment protocol was previously validated (Lowe H C, Schwartz R S, Mac Neill B D, Jang I K, Hayase M, Rogers C, et al. The porcine coronary model of in-stent restenosis: Current status in the era of drug-eluting stents. Catheter Cardiovasclnterv. 2003:60:515-23.)
# The prolonged time of stent re-endothelialization is the critical point of the current commercially available drug-eluting stents. So sirolimus and analogues as paclitaxel decrease the proliferation of vascular smooth muscle cells preventing in-stent neointimal hyperplasia, as well as suppress the proliferation of endothelial cells prolonging the time of stent re-endothelialization. […] Therefore, in order to evaluate the time of stent re-endothelialization, angiographic and intravascular ultrasound follow-up were scheduled at 30, 90 and 180 days after stent deployment.
# The intravascular ultrasound analysis was performed tracing 31 frames for each stent with 0.5 mm apart each frame from the distal stent border to the proximal stent border. The data were analysed using one-way ANOVA with Bonferroni post hoc test.
# The data of intravascular ultrasound in the index procedure as well as the results regarding in-stent neointimal proliferation at 30, 90 and 180 days after stent deployment are shown in table 1, while the comparative data of intravascular ultrasound regarding stent re-endothelialization at 30, 90 and 180 days after stent deployment are shown in table 2.
# [6] = 180 days after stent deployment
# [7] = intravascular ultrasound, follow-up (time not specified)
Compound,VSMC cell proliferation as compared to the full control group [1],"inhibition of VSMC proliferation in comparison with the control ([2]; Experiment 5, control nanoparticles only, FIG. 6)",EC cell proliferation in relation to the full control group [3],EC proliferation compared to the control group [4],"human VSMC proliferation ([2]; Experiment 7, FIG. 8)",Obstruction: average of percentual obstruction in the whole stent length ([5]; 30 days after stent deployment),re-endothelialization (stent struts coverage) from intravascular ultrasound ([5]; 30 days after stent deployment),Obstruction: average of percentual obstruction in the whole stent length ([5]; 90 days after stent deployment),re-endothelialization (stent struts coverage) from intravascular ultrasound ([5]; 90 days after stent deployment),"Obstruction: average of percentual obstruction in the whole stent length [5, 6]","re-endothelialization (stent struts coverage) from intravascular ultrasound [5, 6]","LLL: late lumen loss ([5]; intravascular ultrasound, follow-up)","MLA (minimal luminal area) follow-up [5, 7]","MLD (minimal luminal diameter) follow-up [5, 7]"
CC(=O)O[C@H]1C(=O)[C@@]2(C)[C@H]([C@H](OC(=O)c3ccccc3)[C@]3(O)C[C@H](OC(=O)[C@H](O)[C@@H](NC(=O)c4ccccc4)c4ccccc4)C(C)=C1C3(C)C)[C@]1(OC(C)=O)CO[C@@H]1C[C@@H]2O [paclitaxel],statistically significant inhibition,significant inhibition,statistically significant inhibition,statistically significant inhibition,–,–,–,–,–,–,–,–,–,–
CO[C@H]1C[C@@H]2CC[C@@H](C)[C@@](O)(O2)C(=O)C(=O)N2CCCC[C@H]2C(=O)O[C@H]([C@H](C)C[C@@H]2CC[C@@H](O)[C@H](OC)C2)CC(=O)[C@H](C)/C=C(\C)[C@@H](O)[C@@H](OC)C(=O)[C@H](C)C[C@H](C)/C=C/C=C/C=C/1C [sirolimus],–,–,–,–,19%,11.4 ± 2.2%,48 ± 3.3%,12.3 ± 2.1%,89 ± 3.8%,13.8 ± 2.4% b,100%,0.33 ± 0.12 mm,6.21 ± 0.16 mm^2 b,2.68 ± 0.13 mm
